Experimental data from US10961234B2, “Oxazole derivatives for use in the treatment of cancer” (LIFEARC, priority 2016, dated 2021).

Key:
[1] = system: LM2 and MDA-MB-231 breast cancer cell lines; assay: PAICS 2D cell proliferation assay; type: cell-based; conditions: Homo sapiens; 72 hours incubation; cell line (LM2 or MDA-MB-231) not given
In short: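 Cells seeded at 1000/well, dosed after 24 h with a 10-point ½-log series (top 100 μM, 1% DMSO final), then incubated 72 h at 37 °C. Dead cells measured by CellTox Green DNA staining and viability by CellTiter-Glo ATP luminescence, both expressed as % of controls (mean±SEM, duplicate curves).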

[2] = system: wild type LM2 and CRISPR edited LM2; assay: Cell potency in CRISPR edited (PAICS knock-out) LM2 versus wild type LM2; type: cell-based, human; conditions: CRISPR edited LM2 vs wild type LM2
Method: Cas9 nuclease-mediated gene editing (Sander and Joung, 2014) was performed using a CRISPR RNA guide sequence ([…], PAM: AGG) targeting exon 3 in the human PAICS gene (accession number: NM_006452).
Stable cell clones were isolated and gene disruption confirmed by DNA sequencing and the absence of PAICS cellular protein expression confirmed by Western blotting.
A small set of compounds were tested against wild type LM2 and CRISPR edited LM2 to see to what extent the cellular potency was driven by PAICS mediated effects.

WT full length PAICS = target: T1, WT full length PAICS (Homo sapiens, UniProt P22234); assay: Biochemical assay to measure PAICS activity (Transcreener ADP2 FI, SAICAR synthetase reaction); conditions: PAICS 2.5 nM, 30 mins pre-incubation, ADP detection by fluorescence intensity
T1 construct: 5 μl WT full length PAICS (final assay concentration, fac, 2.5 nM) in basic buffer
T1 sequence (P22234 1-425): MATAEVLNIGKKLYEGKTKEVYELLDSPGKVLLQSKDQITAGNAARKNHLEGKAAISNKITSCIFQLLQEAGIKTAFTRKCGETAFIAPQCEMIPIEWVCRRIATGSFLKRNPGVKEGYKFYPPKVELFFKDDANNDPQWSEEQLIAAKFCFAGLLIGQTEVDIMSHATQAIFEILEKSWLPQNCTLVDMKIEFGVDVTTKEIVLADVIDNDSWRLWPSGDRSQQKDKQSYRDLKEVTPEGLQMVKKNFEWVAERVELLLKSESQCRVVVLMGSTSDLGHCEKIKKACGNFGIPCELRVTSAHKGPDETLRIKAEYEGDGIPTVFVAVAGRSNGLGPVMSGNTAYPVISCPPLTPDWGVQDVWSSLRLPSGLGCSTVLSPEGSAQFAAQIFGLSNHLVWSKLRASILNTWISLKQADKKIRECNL
In short: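 Enzyme (2.5 nM) pre-incubated 30 min RT with compound (top 1 mM or 30 μM, half-log 10-point, duplicate) in 50 mM Tris-HCl pH8, 0.5 mM EDTA; CAIR (10 μM, ~5 μM after 1 h AIR/CAIR equilibration with MgCl2/KHCO3) then ATP/aspartate (30 μM/180 μM) for 30 min RT. ADP read by Transcreener fluorescence intensity (590/617 nm).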

| Structure (SMILES) | EC50 [1] | Potency shift: CRISPR Cell EC50/WT Cell EC50 [2] | IC50 (WT full length PAICS) |
| --- | --- | --- | --- |
| CN(C)CCCOc1ncc(-c2ccc(Cl)c(NC(=O)c3coc(N)n3)c2)s1 [Example 86, 2-Amino-N-(2-chloro-5-{2-[3-(dimethylamino)propoxy]-1,3-thiazol-5-yl}phenyl)-1,3-oxazole-4-carboxamide] | < 0.1 µM | >30 | < 0.01 µM |
| CCNCCCn1cc(-c2ccc(Cl)c(NC(=O)c3coc(N)n3)c2)cn1 [Example 47, 2-Amino-N-(2-chloro-5-(1-(3-(ethylamino)propyl)-1H-pyrazol-4-yl)phenyl)oxazole-4-carboxamide] | < 0.1 µM | >80 | 0.01 to 0.025 µM |
| CN1CCN(c2ccc(-c3ccc(Cl)c(NC(=O)c4coc(N)n4)c3)cn2)CC1 [Example 37, 2-Amino-N-{2-chloro-5-[6-(4-methylpiperazin-1-yl)pyridin-3-yl]phenyl}-1,3-oxazole-4-carboxamide] | 0.1 to 0.25 µM | >10 | > 0.1 µM |
